Reference: PMC11212047, “Merging Flow Synthesis and Enzymatic Maturation to Expand the Chemical Space of Lasso Peptides” (Journal of the American Chemical Society, 2024)
Where no end group is shown, it is not given here.

Tested on: Salmonella enterica serotype Enteritidis
Test: Spot-on-lawn antimicrobial activity assay
Format: cell-based
Details: spot-on-lawn on M63 soft agar, 37 °C overnight; dried maturation assay in MeOH (41.7 µM if full conversion, 5 µL; Tyr9 derivatives also 69.5 µM, 8 µL); halo diameters
Procedure: We next evaluated all lasso peptides and their corresponding branched-cyclic peptides for antimicrobial activity in spot-on-lawn assays against Salmonella enterica serotype Enteritidis.[42] […] Moreover, steric constraints in the tight binding pocket are a limiting factor for Tyr-9 substitutions.
4.3 Antimicrobial activity assay against Salmonella strain
The antimicrobial activity assay of MccJ25-derivatives was performed against the indicative strain Salmonella enterica serotype Enteritidis.
4.3.1 Preparation of M63 agar
For M63 agar plates (20 g agar/L): KH2PO4 (3 g/L), K2HPO4 (7 g/L), (NH4)2SO4 (2 g/L), Casamino acids (1 g/L) were dissolved in 900 mL water. Agar (20 g/L) was added, and the suspension was filled up to 1 L and autoclaved (121 °C for 20 min). […]
The indicative strain is freshly streaked on a LB agar plate and incubated at 37 °C overnight. […] The plates were inspected for bacterial growth and possible halos were measured. […]
Fig. S77: Antimicrobial activity test using spot-on-lawn assays with dried m aturation assay dissolved in 30 µL MeOH: (A) Peptides analyzed after maturation assay. (B) Photos of spot -on-lawn assays and measured halo diameters to evaluate trends in activity. The peptide with three D-amino acids was analyzed on a different date, ther efore, diameter of control C (MccJ25) . […]

With “9′: His-12 MccJ25 mutant (His-12, Phe-13, Ile-15), L-His (GGAGHVPEYFVHFGIPISFYG; ends and bridges not checked; also: lasso peptide: isopeptide ring closure, ring positions not given here; UniProt Q9X2V7 38-58, looked up, variant G12H I13F T15I)” the “antimicrobial activity of enzymatically matured lasso peptides (in words)” value was “slightly stronger activity”.
In the case of “microcin J25 (GGAGHVPEYFVGIGTPISFYG; lactam (positions not given here); also: lasso peptide: isopeptide ring closure, ring positions not given here; UniProt Q9X2V7 38-58, looked up) [1′, native lasso peptide (21 AA), matured from WT-McjA, reference compound]”, the “antimicrobial activity of enzymatically matured lasso peptides (in words)” value is reported as “activities were only observed”.
